This experiment deals with BDF1 mice, P388 leukemia ip, median survival T/C. As to the kind of experiment: NCI In Vivo Anticancer Drug Screen. Data for tumor model P388 Leukemia (intraperitoneal) in B6D2F1 (BDF1) mice. The settings on record: endpoint: median survival time, higher = longer survival. An outline of the steps:
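Each value expresses how treatment altered survival: treated-mouse outcome over vehicle-mouse outcome, both groups bearing the transplanted tumour.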

[1] abbreviates: dose: 12.5 mg/kg/injection, schedule: Q04DX003 (ip), vehicle: saline with Tween-80.
Setting [2] is: dose: 25.0 mg/kg/injection, schedule: Q04DX003 (ip), vehicle: saline with Tween-80.
Where [3] appears, read: dose: 100.0 mg/kg/injection, schedule: Q01DX009 (ip), vehicle: Klucel (hydroxypropylcellulose) (HPC).
Setting [4] is: dose: 200.0 mg/kg/injection, schedule: Q01DX009 (ip), vehicle: Klucel (hydroxypropylcellulose) (HPC).
[5] abbreviates: dose: 400.0 mg/kg/injection, schedule: Q01DX009 (ip), vehicle: Klucel (hydroxypropylcellulose) (HPC).
Where [6] appears, read: dose: 50.0 mg/kg/injection, schedule: Q01DX009 (ip), vehicle: saline with Tween-80.
The mark [7] stands for this setting: dose: 100.0 mg/kg/injection, schedule: Q01DX009 (ip), vehicle: saline with Tween-80.
The mark [8] stands for this setting: dose: 25.0 mg/kg/injection, schedule: Q01DX009 (ip), vehicle: saline with Tween-80.
[9] abbreviates: dose: 50.0 mg/kg/injection, schedule: Q04DX003 (ip), vehicle: saline with Tween-80.
[10] abbreviates: dose: 100.0 mg/kg/injection, schedule: Q04DX003 (ip), vehicle: saline with Tween-80.
Where [11] appears, read: dose: 200.0 mg/kg/injection, schedule: Q04DX003 (ip), vehicle: saline with Tween-80.
[12] abbreviates: dose: 400.0 mg/kg/injection, schedule: Q04DX003 (ip), vehicle: saline with Tween-80.
[13] abbreviates: dose: 25.0 mg/kg/injection, schedule: Q01DX009 (ip), vehicle: water.
Setting [14] is: dose: 25.0 mg/kg/injection, schedule: Q04DX003 (ip), vehicle: water.
[15] abbreviates: dose: 50.0 mg/kg/injection, schedule: Q04DX003 (ip), vehicle: water.
[16] abbreviates: dose: 100.0 mg/kg/injection, schedule: Q01DX009 (ip), vehicle: water.
The mark [17] stands for this setting: dose: 100.0 mg/kg/injection, schedule: Q04DX003 (ip), vehicle: water.
Setting [18] is: dose: 200.0 mg/kg/injection, schedule: Q04DX003 (ip), vehicle: water.
The mark [19] stands for this setting: dose: 400.0 mg/kg/injection, schedule: Q04DX003 (ip), vehicle: water.
The mark [20] stands for this setting: dose: 100.0 mg/kg/injection, schedule: Q04DX003 (ip), vehicle: Klucel (hydroxypropylcellulose) (HPC).
The mark [21] stands for this setting: dose: 200.0 mg/kg/injection, schedule: Q04DX003 (ip), vehicle: Klucel (hydroxypropylcellulose) (HPC).
Where [22] appears, read: dose: 400.0 mg/kg/injection, schedule: Q04DX003 (ip), vehicle: Klucel (hydroxypropylcellulose) (HPC).
The mark [23] stands for this setting: dose: 100.0 mg/kg/injection, schedule: Q01DX009 (ip), vehicle: saline.
The mark [24] stands for this setting: dose: 200.0 mg/kg/injection, schedule: Q01DX009 (ip), vehicle: saline.

Structures are written as SMILES. Toxic doses and inconclusive results are not listed.

With `COc1ccc(CC2C(=O)NC(C)C(=O)N(C)C3C(=O)N(C)C(Cc4ccc(O)c(c4)Oc4ccc(cc4)C3O)C(=O)NC(C)C(=O)NC(C)C(=O)N2C)cc1` (stereo not drawn), the T/C runs as follows: (dose: 0.11 mg/kg/injection, schedule: Q01DX009 (ip), vehicle: alcohol) 150 % of control; (dose: 0.11 mg/kg/injection, schedule: Q01DX009 (ip), vehicle: saline) 164 % of control; (dose: 0.16 mg/kg/injection, schedule: Q01DX009 (ip), vehicle: alcohol) 158 % of control; (dose: 0.25 mg/kg/injection, schedule: Q01DX009 (ip), vehicle: alcohol) 188 % of control; (dose: 1.0 mg/kg/injection, schedule: Q01DX009 (ip), vehicle: distilled water + Tween-80) 173 % of control; (dose: 10.0 micrograms/kg/injection, schedule: Q01DX009 (ip), vehicle: alcohol) 110 % of control. Also, the T/C reads like this: (dose: 518.0 micrograms/kg/injection, schedule: Q04DX003 (ip), vehicle: other) 163 % of control; (dose: 864.0 micrograms/kg/injection, schedule: Q04DX003 (ip), vehicle: other) 184 % of control; (dose: 1440.0 micrograms/kg/injection, schedule: Q04DX003 (ip), vehicle: other) 175 % of control; (dose: 2400.0 micrograms/kg/injection, schedule: Q04DX003 (ip), vehicle: other) 181 % of control.
In the case of `COC(=O)C1(C)CC2C(C)(CCC3(C)C4=CC=C5C(=CC(=O)C(O)=C5C)C4(C)CCC23C)CC1O` (stereo not drawn), the T/C runs as follows: (dose: 25.0 mg/kg/injection, schedule: Q01DX001 (ip), vehicle: saline with Tween-80) 109 % of control; (dose: 50.0 mg/kg/injection, schedule: Q01DX001 (ip), vehicle: saline with Tween-80) 91 % of control; (dose: 100.0 mg/kg/injection, schedule: Q01DX001 (ip), vehicle: saline with Tween-80) 104 % of control.
With `CC(/C=C/C1(C)C(C)CCC(=O)C1C)=C\Cc1c(O)c(Cl)c(C)c(C=O)c1O` (stereo not drawn), the T/C runs as follows: under setting [1], 92 % of control; under setting [2], 90 % of control.
Turning to `CCOC(=O)c1sc(NC(C)=O)c(C(=O)OCC)c1C`, the T/C is, setting by setting: under setting [3], 100 % of control; under setting [4], 100 % of control; under setting [5], 100 % of control.
With `O=C(O)CCNSc1ccccc1[N+](=O)[O-]`, the T/C was 106 % of control under setting [6] and 106 % of control under setting [7].
On to `CC1(c2cccs2)C(=O)NC(=O)N1C(=O)CCl` (stereo not drawn), for which the T/C reads like this: (dose: 12.5 mg/kg/injection, schedule: Q01DX009 (ip), vehicle: saline with Tween-80) 101 % of control; under setting [8], 88 % of control; under setting [6], 105 % of control; under setting [9], 104 % of control; (dose: 75.0 mg/kg/injection, schedule: Q01DX009 (ip), vehicle: saline with Tween-80) 90 % of control; under setting [7], 106 % of control. Moreover, the T/C is, setting by setting: under setting [10], 94 % of control; (dose: 150.0 mg/kg/injection, schedule: Q01DX009 (ip), vehicle: saline with Tween-80) 105 % of control; under setting [11], 97 % of control.
With `OC1C=CC2C3C=CC(C3)C12` (stereo not drawn), the T/C reads like this: (dose: 100.0 mg/kg/injection, schedule: Q04DX003 (ip), vehicle: saline) 96 % of control; (dose: 200.0 mg/kg/injection, schedule: Q04DX003 (ip), vehicle: saline) 92 % of control; (dose: 400.0 mg/kg/injection, schedule: Q04DX003 (ip), vehicle: saline) 103 % of control.
For the compound `CC(=O)OCc1ccc(Cl)cc1`, the T/C is 116 % of control under setting [6] and 112 % of control under setting [7].
With `CCCCCCCCCCCCCCCCCCNC(=O)Nc1ccc(CC)cc1`, the T/C was 90 % of control under setting [10], 104 % of control under setting [11] and 95 % of control under setting [12].
In the case of `CC(C)(C)c1ccc(/C(N)=N/O)cc1`, the T/C is 92 % of control (dose: 50.0 mg/kg/injection, schedule: Q01DX005 (ip), vehicle: saline with Tween-80) and 101 % of control (dose: 100.0 mg/kg/injection, schedule: Q01DX005 (ip), vehicle: saline with Tween-80).
As for `O=C(NC1CSSC1)C(Cc1ccccc1)N1C(=O)c2ccccc2C1=O` (stereo not drawn), the T/C is, setting by setting: under setting [13], 104 % of control; under setting [14], 90 % of control; (dose: 50.0 mg/kg/injection, schedule: Q01DX009 (ip), vehicle: water) 95 % of control; under setting [15], 107 % of control; under setting [16], 108 % of control; under setting [17], 98 % of control. Further, the T/C was 108 % of control (dose: 200.0 mg/kg/injection, schedule: Q01DX009 (ip), vehicle: water); 100 % of control under setting [18]; 100 % of control (dose: 400.0 mg/kg/injection, schedule: Q01DX009 (ip), vehicle: water); 98 % of control under setting [19].
On to `O=[n+]1c2ccccc2n([O-])c2ccccc21.[Cl][Cu][Cl]`, for which the T/C by setting is: (dose: 6.25 mg/kg/injection, schedule: Q04DX003 (ip), vehicle: saline with Tween-80) 101 % of control; under setting [1], 116 % of control.
Regarding `Oc1c(Cl)c(Cl)c(Cl)c(Cl)c1Cl` (tested in a mixture with another compound), under setting [8], the T/C was 109 % of control.
Regarding `Nc1ccc(S(=O)(=O)Nc2ccc(I)cc2)cc1`, the T/C under setting [3] was 90 % of control; the T/C under setting [20] is 123 % of control; the T/C under setting [4] was 104 % of control; the T/C under setting [21] is 96 % of control; the T/C under setting [5] was 100 % of control; the T/C under setting [22] was 92 % of control.
`NC(=O)Nc1nc(-c2ccccc2)no1`: the T/C is, setting by setting: under setting [3], 95 % of control; under setting [20], 100 % of control; under setting [4], 100 % of control; under setting [21], 109 % of control; under setting [5], 90 % of control; under setting [22], 100 % of control.
In the case of `O=C(O)c1cc(Br)ccc1OCc1ccc(Cl)cc1`, the T/C is, setting by setting: under setting [10], 106 % of control; under setting [11], 99 % of control; under setting [12], 110 % of control.
Turning to `C=CS(=O)(=O)Cc1ccccc1`, the T/C under setting [2] is 104 % of control and the T/C under setting [9] was 93 % of control.
On to `Cc1nc2n[nH]c(N)c2nc1C`, for which the T/C by setting is: under setting [23], 100 % of control; under setting [24], 100 % of control; (dose: 400.0 mg/kg/injection, schedule: Q01DX009 (ip), vehicle: saline) 91 % of control.
As to `O=C1c2ccccc2C(=O)N1C1CCC(O)CC1` (stereo not drawn), the T/C under setting [8] is 109 % of control; the T/C under setting [2] is 104 % of control; the T/C under setting [6] is 86 % of control; the T/C under setting [9] was 109 % of control; the T/C under setting [7] is 90 % of control; the T/C under setting [10] was 104 % of control.
In the case of `OCC(O)C1CCCCN1` (stereo not drawn), the T/C by setting is: (dose: 50.0 mg/kg/injection, schedule: Q01DX009 (ip), vehicle: saline) 104 % of control; under setting [23], 106 % of control; under setting [24], 104 % of control.
Take `O=C(O)c1c[nH]c2nccnc12`: the T/C was 98 % of control under setting [13]; 103 % of control under setting [14]; 99 % of control under setting [15]; 88 % of control under setting [16]; 103 % of control under setting [17]; 103 % of control under setting [18]. The T/C under setting [19] was 92 % of control.
In the case of `CCC(=O)O[C@H]1CC[C@H]2[C@@H]3[C@@H](C)CC4=CC(=O)CC[C@]4(C)[C@H]3CC[C@]12C`, the T/C under setting [7] is 105 % of control; the T/C (dose: 200.0 mg/kg/injection, schedule: Q01DX009 (ip), vehicle: saline with Tween-80) is 95 % of control; the T/C (dose: 400.0 mg/kg/injection, schedule: Q01DX009 (ip), vehicle: saline with Tween-80) was 95 % of control.
In the case of `O=C1CSC(C23CC4CC(CC(C4)C2)C3)N1c1nccs1` (stereo not drawn), the T/C is 92 % of control under setting [6] and 90 % of control under setting [7].

These data come from PubChem BioAssay AID328 (DTP/NCI, 2004).
